According to US12064437B2, “Methods for treating systemic lupus erythematosus and the use of biomarkers as a predictor of clinical sensitivity to therapies” (CELGENE CORPORATION, priority 2020, dated 2024):

What was measured:
[1] = system: subjects with active autoantibody-positive SLE; test: Phase 2b study in SLE: SLE Responder Index 4 (SRI-4) response at week 24; assay type: in vivo, human; conditions: for Percentage of Subjects Who Achieve SRI(4) at Week 24, n/m (%) / SRI(4) at Week 24, Stratified Difference (%) (95% CI), Iberdomide - Placebo: ITT
Description: (§1) The pharmacokinetics, pharmacodynamics (PD), efficacy, and safety of oral iberdomide ((S)-3-[4-({4-[(morpholin-4-yl)methyl]phenyl}methoxy)-1-oxo-1,3-dihydro-2H-isoindol-2-yl]piperidine-2,6-dione-hydrogen chloride (1/1)) were evaluated in a phase 2b study in subjects with active autoantibody-positive SLE.
(§2) Adult SLE patients (N=288) with a ≥6-month history of SLE and SLE Disease Activity Index (SLEDAI 2K) ≥6 were randomized to placebo (n=83) or iberdomide 0.15 mg QD (n=42), 0.3 mg QD (n=82), or 0.45 mg QD (n=81). Clinical response was determined by the SLE Responder Index 4 (SRI-4) at week 24 for all patients and within pre-specified biomarker-enriched subsets based on expression of Ikaros, Aiolos, the Type 1 IFN signature (IFI27, IFI44, IFI44L, RSAD2), and other gene modules measured from fingerstick blood collected at baseline (Modular Immune Profile Test, DxTerity Diagnostics, Inc.). The primary objective of the study was to evaluate the clinical efficacy of 3 doses of iberdomide (0.45 mg once per day [QD], 0.30 mg QD, or 0.15 mg QD) compared to placebo, for the treatment of active SLE using the SLE Responder Index at Week 24.

[2] = system: subjects with active autoantibody-positive SLE; test: Phase 2b study in SLE: BILAG-Based Combined Lupus Assessment (BICLA) response; assay type: in vivo, human
Description: as §1, §2
The treatment comparison with placebo (33.3%) for BICLA was larger in the subgroup of subjects with baseline IKZF3 high, but only for 0.45 mg QD iberdomide (52.0%) and 0.15 mg QD iberdomide (41.7%).

[3] = B cell: High at baseline, 0.15 mg QD
[4] = B cell: High at baseline, 0.30 mg QD
[5] = B cell: High at baseline, 0.45 mg QD
[6] = IKZF1: High at baseline, 0.15 mg QD
[7] = IKZF1: High at baseline, 0.30 mg QD
[8] = IKZF1: High at baseline, 0.45 mg QD
[9] = IKZF1 Status of SNP rs4917014: 1 or 2 Copies, 0.15 mg QD
[10] = IKZF1 Status of SNP rs4917014: 1 or 2 Copies, 0.30 mg QD
[11] = IKZF1 Status of SNP rs4917014: 1 or 2 Copies, 0.45 mg QD
[12] = IKZF3 (Aiolos): High at baseline, 0.45 mg QD
[13] = Ikaros IFN: High at baseline, 0.15 mg QD
[14] = Ikaros IFN: High at baseline, 0.30 mg QD
[15] = Ikaros IFN: High at baseline, 0.45 mg QD
[16] = T cell Exhaustion: Low at baseline, 0.15 mg QD
[17] = T cell Exhaustion: Low at baseline, 0.30 mg QD
[18] = T cell Exhaustion: Low at baseline, 0.45 mg QD
[19] = Type 1 IFN: High at baseline, 0.15 mg QD
[20] = Type 1 IFN: High at baseline, 0.30 mg QD
[21] = Type 1 IFN: High at baseline, 0.45 mg QD

O=C1CC[C@H](N2Cc3c(OCc4ccc(CN5CCOCC5)cc4)cccc3C2=O)C(=O)N1 [iberdomide, (S)-3-[4-({4-[(morpholin-4-yl)methyl]phenyl}methoxy)-1-oxo-1,3-dihydro-2H-isoindol-2-yl]piperidine-2,6-dione-hydrogen chloride (1/1)]
SRI(4) stratified difference from placebo ([1]; 0 copies of IKZF1 rs4917014 protective minor allele (G), 0.45 mg QD): 6.1% | estimated SRI-4 response rate ([1]; Aiolos (IKZF3) gene expression cutoff −0.49, 0.45 mg dose, prevalence vs. cutoff analysis): 60-65% | Percentage of Subjects Who Achieve SRI(4) at Week 24, n/m (%) [1, 3]: 8/24 (33.3) % | SRI(4) at Week 24, Stratified Difference (%) (95% CI), Iberdomide - Placebo [1, 3]: −0.7 (−22.56, 22.94) % | Percentage of Subjects Who Achieve SRI(4) at Week 24, n/m (%) [1, 4]: 19/49 (38.8) % | SRI(4) at Week 24, Stratified Difference (%) (95% CI), Iberdomide - Placebo [1, 4]: 4.5 (−15.06, 23.69) % | Percentage of Subjects Who Achieve SRI(4) at Week 24, n/m (%) [1, 5]: 30/54 (55.6) % | SRI(4) at Week 24, Stratified Difference (%) (95% CI), Iberdomide - Placebo [1, 5]: 20.4 (0.74, 38.01) % | SRI-4 treatment effect versus placebo ([1]; IFN High Aiolos High double-positive population, high dose 0.45 mg, week 24): 29.8% | SRI-4 treatment effect versus placebo ([1]; IFN High Aiolos High double-positive population, low dose 0.15 mg, week 24): 29.8% | SRI-4 treatment effect versus placebo ([1]; IFN High Aiolos Low population, low dose 0.15 mg, week 24): 26.8% | SRI-4 treatment effect versus placebo ([1]; IFN Low Aiolos High subset, high dose 0.45 mg, week 24): 35.0% | Percentage of Subjects Who Achieve SRI(4) at Week 24, n/m (%) [1, 6]: 12/28 (42.9) % | SRI(4) at Week 24, Stratified Difference (%) (95% CI), Iberdomide - Placebo [1, 6]: 7.0 (−14.36, 28.68) % | Percentage of Subjects Who Achieve SRI(4) at Week 24, n/m (%) [1, 7]: 21/53 (39.6) % | SRI(4) at Week 24, Stratified Difference (%) (95% CI), Iberdomide - Placebo [1, 7]: 2.4 (−15.87, 20.58) % | Percentage of Subjects Who Achieve SRI(4) at Week 24, n/m (%) [1, 8]: 35/64 (54.7) % | SRI(4) at Week 24, Stratified Difference (%) (95% CI), Iberdomide - Placebo [1, 8]: 16.1 (−1.76, 32.65) % | Percentage of Subjects Who Achieve SRI(4) at Week 24, n/m (%) [1, 9]: 11/21 (52.4) % | SRI(4) at Week 24, Stratified Difference (%) (95% CI), Iberdomide - Placebo [1, 9]: 23.0 (−2.36, 46.07) % | Percentage of Subjects Who Achieve SRI(4) at Week 24, n/m (%) [1, 10]: 18/46 (39.1) % | SRI(4) at Week 24, Stratified Difference (%) (95% CI), Iberdomide - Placebo [1, 10]: 7.9 (−12.18, 26.84) % | Percentage of Subjects Who Achieve SRI(4) at Week 24, n/m (%) [1, 11]: 20/36 (55.6) % | SRI(4) at Week 24, Stratified Difference (%) (95% CI), Iberdomide - Placebo [1, 11]: 21.3% | Percentage of Subjects Who Achieve SRI(4) at Week 24, n/m (%) ([1]; IKZF3 (Aiolos): High at baseline, 0.15 mg QD): 5/14 (35.7) % | SRI(4) at Week 24, Stratified Difference (%) (95% CI), Iberdomide - Placebo ([1]; IKZF3 (Aiolos): High at baseline, 0.15 mg QD, listed as Iberdomide): 2.2 (−24.82, 31.94) % | Percentage of Subjects Who Achieve SRI(4) at Week 24, n/m (%) ([1]; IKZF3 (Aiolos): High at baseline, 0.30 mg QD): 9/32 (28.1) % | SRI(4) at Week 24, Stratified Difference (%) (95% CI), Iberdomide - Placebo ([1]; IKZF3 (Aiolos): High at baseline, 0.30 mg QD, listed as Iberdomide): −7.1 (−31.13, 16.94) % | Percentage of Subjects Who Achieve SRI(4) at Week 24, n/m (%) [1, 12]: 23/36 (63.9) % | SRI(4) at Week 24, Stratified Difference (%) (95% CI), Iberdomide - Placebo [1, 12]: 32.9% | SRI(4) at Week 24, Stratified Difference (%) (95% CI), Iberdomide - Placebo ([1]; IKZF3 (Aiolos): High at baseline, 0.45 mg QD, listed as Iberdomide): 32.9 (7.74, 52.90) % | Percentage of Subjects Who Achieve SRI(4) at Week 24, n/m (%) [1, 13]: 16/30 (53.3) % | SRI(4) at Week 24, Stratified Difference (%) (95% CI), Iberdomide - Placebo [1, 13]: 18.6 (−3.69, 39.05) % | Percentage of Subjects Who Achieve SRI(4) at Week 24, n/m (%) [1, 14]: 21/49 (42.9) % | SRI(4) at Week 24, Stratified Difference (%) (95% CI), Iberdomide - Placebo [1, 14]: 8.9 (−10.47, 27.36) % | Percentage of Subjects Who Achieve SRI(4) at Week 24, n/m (%) [1, 15]: 36/62 (58.1) % | SRI(4) at Week 24, Stratified Difference (%) (95% CI), Iberdomide - Placebo [1, 15]: 24.3% | SRI(4) at Week 24, Stratified Difference (%) (95% CI), Iberdomide - Placebo ([1]; Ikaros IFN: High at baseline, 0.45 mg QD, listed as Iberdomide): 24.3 (5.45, 40.76) % | SRI(4) at Week 24, Stratified Difference (%) (95% CI), Iberdomide - Placebo ([1]; Overall Subjects, 0.15 mg QD): 11.4% | Percentage of Subjects Who Achieve SRI(4) at Week 24, n/m (%) ([1]; Overall Subjects, 0.15 mg QD, nonresponder imputation): 20/42 (47.6) % | SRI(4) at Week 24, Stratified Difference (%) (95% CI), Iberdomide - Placebo ([1]; Overall Subjects, 0.15 mg QD, listed as Iberdomide): 11.4 (−6.57, 29.00) % | SRI(4) at Week 24, Stratified Difference (%) (95% CI), Iberdomide - Placebo ([1]; Overall Subjects, 0.30 mg QD): 5.0% | Percentage of Subjects Who Achieve SRI(4) at Week 24, n/m (%) ([1]; Overall Subjects, 0.30 mg QD, nonresponder imputation): 33/82 (40.2) % | SRI(4) at Week 24, Stratified Difference (%) (95% CI), Iberdomide - Placebo ([1]; Overall Subjects, 0.30 mg QD, listed as Iberdomide): 5.0 (−9.77, 19.48) % | SRI(4) at Week 24, Stratified Difference (%) (95% CI), Iberdomide - Placebo ([1]; Overall Subjects, 0.45 mg QD): 19.4% | Percentage of Subjects Who Achieve SRI(4) at Week 24, n/m (%) ([1]; Overall Subjects, 0.45 mg QD, nonresponder imputation): 54.3% | Percentage of Subjects Who Achieve SRI(4) at Week 24, n/m (%) ([1]; Overall Subjects, 0.45 mg QD, nonresponder imputation, listed as Iberdomide): 44/81 (54.3) % | SRI(4) at Week 24, Stratified Difference (%) (95% CI), Iberdomide - Placebo ([1]; Overall Subjects, 0.45 mg QD, listed as Iberdomide): 19.4 (4.12, 33.42) % | Percentage of Subjects Who Achieve SRI(4) at Week 24, n/m (%) [1, 16]: 13/29 (44.8) % | SRI(4) at Week 24, Stratified Difference (%) (95% CI), Iberdomide - Placebo [1, 16]: 5.4 (−15.51, 26.63) % | Percentage of Subjects Who Achieve SRI(4) at Week 24, n/m (%) [1, 17]: 28/65 (43.1) % | SRI(4) at Week 24, Stratified Difference (%) (95% CI), Iberdomide - Placebo [1, 17]: 4.7 (−12.69, 21.53) % | Percentage of Subjects Who Achieve SRI(4) at Week 24, n/m (%) [1, 18]: 39/66 (59.1) % | SRI(4) at Week 24, Stratified Difference (%) (95% CI), Iberdomide - Placebo [1, 18]: 21.9 (4.30, 37.77) % | Percentage of Subjects Who Achieve SRI(4) at Week 24, n/m (%) [1, 19]: 15/25 (60.0) % | SRI(4) at Week 24, Stratified Difference (%) (95% CI), Iberdomide - Placebo [1, 19]: 25.6% | SRI(4) at Week 24, Stratified Difference (%) (95% CI), Iberdomide - Placebo ([1]; Type 1 IFN: High at baseline, 0.15 mg QD, listed as Iberdomide): 25.6 (1.54, 46.35) % | Percentage of Subjects Who Achieve SRI(4) at Week 24, n/m (%) [1, 20]: 21/49 (42.9) % | SRI(4) at Week 24, Stratified Difference (%) (95% CI), Iberdomide - Placebo [1, 20]: 10.6 (−8.93, 29.11) % | Percentage of Subjects Who Achieve SRI(4) at Week 24, n/m (%) [1, 21]: 34/57 (59.6) % | SRI(4) at Week 24, Stratified Difference (%) (95% CI), Iberdomide - Placebo [1, 21]: 26.8% | SRI(4) at Week 24, Stratified Difference (%) (95% CI), Iberdomide - Placebo ([1]; Type 1 IFN: High at baseline, 0.45 mg QD, listed as Iberdomide): 26.8 (7.49, 43.54) % | SRI-4 clinical efficacy ([1]; double-negative IFN Low Aiolos Low population, week 24): no clinical efficacy | percentage of subjects who achieved BICLA response at Week 24 ([2]; baseline IKZF3 high, 0.15 mg QD): 41.7% | percentage of subjects who achieved BICLA response at Week 24 ([2]; baseline IKZF3 high, 0.45 mg QD): 52.0% | BICLA response at Week 24, stratified difference from placebo ([2]; overall subjects with baseline BILAG 2004 1A or 2B scores, 0.15 mg QD): 0.3% | percentage of subjects who achieved BICLA response at Week 24 ([2]; overall subjects with baseline BILAG 2004 1A or 2B scores, 0.15 mg QD, NRI, ITT): 37.1% | BICLA response at Week 24, stratified difference from placebo ([2]; overall subjects with baseline BILAG 2004 1A or 2B scores, 0.30 mg QD): −3.6% | percentage of subjects who achieved BICLA response at Week 24 ([2]; overall subjects with baseline BILAG 2004 1A or 2B scores, 0.30 mg QD, NRI, ITT): 33.3% | BICLA response at Week 24, stratified difference from placebo ([2]; overall subjects with baseline BILAG 2004 1A or 2B scores, 0.45 mg QD): 1.0% | percentage of subjects who achieved BICLA response at Week 24 ([2]; overall subjects with baseline BILAG 2004 1A or 2B scores, 0.45 mg QD, NRI, ITT): 37.3%
